Common to all, as to assay type: physicochemical
Data set [1] in a line: Dynamic Vapour Sorption (DVS) moisture sorption/desorption. Particulars: for Mass increase at 80% relative humidity (DVS): 80% RH; for Mass increase at 90% relative humidity (DVS): 90% RH; for Hygroscopicity / Hysteresis in DVS sorption/desorption: result in words. On the procedure:
Dynamic Vapour Sorption (DVS) profiles were obtained using an Igasorp Hiden Isochema instrument (serial number IGA-SA-066). After an initial stabilization period, at least two isotherms (at 25° C.) were obtained for each sample: a moisture sorption from 0 to 95% relative humidity and moisture desorption from 95% relative humidity to dryness. Both isotherms were performed in 10% humidity steps, with a minimum time of 10 minutes and a maximum time of 30 minutes for each step.

Data set [2] is described as follows: Differential scanning calorimetry (DSC) thermogram, stability. Particulars: heated 30 to 350° C. at 10° C./min; result in words. How it is done:
The differential scanning calorimetry (DSC) thermograms analyses were obtained using a DSC-821 Mettler-Toledo instrument, serial number 5117423874. Samples were weighed into an aluminium pan, an aluminium lid placed on top of the sample and compressed with a brass rod. Samples were equilibrated at 30° C. and heated at 10° C./min to 350° C. The instrument was calibrated using indium and zinc standards.
(DSC measures the heat that a sample takes up or gives off during a temperature scan.)

The next data set in a line: Water-solubility test. Particulars: for Water Solubility @ 25° C. (mg/mL as acid): 25° C. (room temperature). How it is done:
The solubility of the of Examples 1-3 in water at room temperature was determined together with the solubility of the corresponding free acids.

Each structure is given as a SMILES string. Structures can show the parent of a compound that is named as a salt.

In the case of `O=C(O)c1cc(C2CC2)ccc1Nc1cnc(-c2c(F)cccc2F)nc1` [Example 1, 5-cyclopropyl-2-{[2-(2,6-difluorophenyl)pyrimidin-5-yl]amino}benzoic acid, tromethamine salt], in data set [1] (25° C.), the “Mass increase at 80% relative humidity (DVS)” value was 1.2% and the “Mass increase at 90% relative humidity (DVS)” value is reported as 6.1%. Further, in data set [1], the Hygroscopicity entry is “not hygroscopic” and the “Hysteresis in DVS sorption/desorption” value is reported as “no hysteresis”. In addition, the “Stability (polymorph conversion / decomposition) from DSC thermogram” value in data set [2] was “high stability”. For the same molecule, in the data set “Water-solubility test” (result in words), the “Solubility in water compared with the corresponding free acids” value is recorded as “Particularly good results”. For the same molecule, the “Water Solubility @ 25° C. (mg/mL as acid)” value in “Water-solubility test” is 1.780 mg/mL as acid.

`O=C(O)c1cc(C2CC2)ccc1Nc1cnc(-c2ccccc2C(F)(F)F)nc1` [Example 2, 5-cyclopropyl-2-{[2-(2-(trifluoromethyl)phenyl)pyrimidin-5-yl]amino}benzoic acid, tromethamine salt]: in data set [1] (25° C.), the “Mass increase at 80% relative humidity (DVS)” value is listed as 3.4%. The “Mass increase at 95% relative humidity (DVS)” value in data set [1] (95% RH, 25° C.) came to 7.0%. Also, in data set [1], the Hygroscopicity result is recorded as “slightly hygroscopic” and the “Hysteresis in DVS sorption/desorption” value is on record as “no hysteresis”. Moreover, in data set [2], the “Stability (polymorph conversion / decomposition) from DSC thermogram” value is “high stability”. Further, the “Water Solubility @ 25° C. (mg/mL as acid)” value in the data set “Water-solubility test” is 0.139 mg/mL as acid.

For `Cc1ccc(Nc2ccc(-c3cccc(F)c3F)nc2)c(C(=O)O)c1` [Example 3, 5-methyl-2-{[6-(2,3-difluorophenyl)pyridin-3-yl]amino}benzoic acid, tromethamine salt], in data set [1] (25° C.), the “Mass increase at 80% relative humidity (DVS)” value was 1.8% and the “Mass increase at 90% relative humidity (DVS)” value came out at 5.1%. For the same molecule, in data set [1], the Hygroscopicity result is recorded as “not hygroscopic” and the “Hysteresis in DVS sorption/desorption” value is “no hysteresis”. In addition, in data set [2], the “Stability (polymorph conversion / decomposition) from DSC thermogram” value is reported as “high stability”. Further, the “Water Solubility @ 25° C. (mg/mL as acid)” value in the data set “Water-solubility test” is on record as 0.540 mg/mL as acid.

Turning to `O=C(O)c1cc(C2CC2)ccc1Nc1cnc(-c2c(F)cccc2F)nc1` [Example C1, 5-cyclopropyl-2-{[2-(2,6-difluorophenyl)pyrimidin-5-yl]amino}benzoic acid, reference compound], the “Water Solubility @ 25° C. (mg/mL as acid)” value in “Water-solubility test” was found to be 0.030 mg/mL as acid.

As for `O=C(O)c1cc(C2CC2)ccc1Nc1cnc(-c2ccccc2C(F)(F)F)nc1` [Example C2, 5-cyclopropyl-2-{[2-(2-(trifluoromethyl)phenyl)pyrimidin-5-yl]amino}benzoic acid, reference compound], in the data set “Water-solubility test”, the “Water Solubility @ 25° C. (mg/mL as acid)” value is 0.003 mg/mL as acid.

Turning to `Cc1ccc(Nc2ccc(-c3cccc(F)c3F)nc2)c(C(=O)O)c1` [Example C3, 5-methyl-2-{[6-(2,3-difluorophenyl)pyridin-3-yl]amino}benzoic acid, reference compound], the “Water Solubility @ 25° C. (mg/mL as acid)” value in “Water-solubility test” was determined as 0.007 mg/mL as acid.
